SMILES strings stand for the structures. pEC50: −log10 of the molar value. Structures can show the parent of a compound that is named as a salt. Some results are limits rather than exact numbers.

This assay deals with progranulin (PGRN). Put plainly: progranulin induction cellular assay (PGRN assay), ELISA-based readout. The note with it: PGRN assay as described: mouse primary microglia, primary cortical neurons and BV-2 cell lines; secreted mouse PGRN in medium by ELISA; cell type for Table B not specified. As for the experimental part:
Cellular Assays: To measure the efficacy of compounds, a progranulin induction cellular assay in mouse primary microglia (pMG), primary cortical neurons, and BV-2 cell lines is used. BV-2 cells are split the day before plating into a 96 well plate format at approximately 80%. Cells should be plated the day before and allowed for 1 hour attachment period and for 16 hour incubation. Levels of progranulin secreted into the cell culture medium or retained in the cell lysate can be quantified using an ELISA-based readout and measurement of secreted mouse PGRN in the medium was assessed by the methodology published by Ghidoni et al. 2012. Standard ELISA kits to measure PGRN are available from vendors such as Adipogen, R&D, and Biovendor.
Table B below presents the results of a PGRN assay as described above.
For orientation: An ELISA detects its analyte on a solid surface through an enzyme-linked reagent.

The compound `CC(=O)NC12CC(NC(=O)N3CCc4ccccc4[C@@H]3c3ccc(F)cc3)(C1)C2` [Compound 4016, (S)—N-(3-acetamidobicyclo[1.1.1]pentan-1-yl)-1-(4-fluorophenyl)-3,4-dihydroisoquinoline-2(1H)-carboxamide] showed a pEC50 of less than 5.00.

For `CS(=O)(=O)NC12CC(NC(=O)N3CCc4ccccc4[C@@H]3c3ccc(F)cc3)(C1)C2` [Compound 4017, (S)-1-(4-fluorophenyl)-N-(3-(methylsulfonamido)bicyclo[1.1.1]pentan-1-yl)-3,4-dihydroisoquinoline-2(1H)-carboxamide], the pEC50 was less than 5.00.

Regarding `CS(=O)(=O)NC12CC(OC(=O)N3CCc4ccccc4[C@@H]3c3ccc(F)cc3)(C1)C2` [Compound 4018, 3-(Methylsulfonamido)bicyclo[1.1.1]pentan-1-yl (S)-1-(4-fluorophenyl)-3,4-dihydroisoquinoline-2(1H)-carboxylate], the pEC50 was less than 5.00.

`O=C(NC12CC(NC(=O)C(F)(F)F)(C1)C2)N1CCc2ccccc2[C@@H]1c1ccc(F)cc1` [Compound 4019]: the pEC50 was 5.63.

With `O=C(NC12CC(NS(=O)(=O)C(F)(F)F)(C1)C2)N1CCc2ccccc2[C@@H]1c1ccc(F)cc1` [Compound 4020, (S)-1-(4-fluorophenyl)-N-(3-((trifluoromethyl)sulfonamido)bicyclo[1.1.1]pentan-1-yl)-3,4-dihydroisoquinoline-2(1H)-carboxamide], the pEC50 was 5.48.

In the case of `O=C(NC12CC(N3CCS(=O)(=O)CC3)(C1)C2)N1CCc2ccccc2[C@@H]1c1ccc(F)cc1` [Compound 4021, (S)—N-(3-(1,1-dioxidothiomorpholino)bicyclo[1.1.1]pentan-1-yl)-1-(4-fluorophenyl)-3,4-dihydroisoquinoline-2(1H)-carboxamide], the pEC50 is less than 5.00.

Consider `CN(C)C12CC(NC(=O)N3CCc4ccccc4[C@@H]3c3ccc(F)cc3)(C1)C2` [Compound 4022, (S)—N-(3-(dimethylamino)bicyclo[1.1.1]pentan-1-yl)-1-(4-fluorophenyl)-3,4-dihydroisoquinoline-2(1H)-carboxamide], for which the pEC50 is 5.27.

`O=C(NC12CC(NCC(F)(F)F)(C1)C2)N1CCc2ccccc2[C@@H]1c1ccc(F)cc1` [Compound 4023, (S)-1-(4-fluorophenyl)-N-(3-((2,2,2-trifluoroethyl)amino)bicyclo[1.1.1]pentan-1-yl)-3,4-dihydroisoquinoline-2(1H)-carboxamide] had a pEC50 of less than 5.00.

`O=C(NC12CC(N3CCCC3=O)(C1)C2)N1CCc2ccccc2[C@@H]1c1ccc(F)cc1` [Compound 4024, (S)-1-(4-fluorophenyl)-N-(3-(2-oxopyrrolidin-1-yl)bicyclo[1.1.1]pentan-1-yl)-3,4-dihydroisoquinoline-2(1H)-carboxamide] had a pEC50 of less than 5.00.

`O=C(OC12CC(N3CCCC3=O)(C1)C2)N1CCc2ccccc2[C@@H]1c1ccc(F)cc1` [Compound 4025, 3-(2-Oxopyrrolidin-1-yl)bicyclo[1.1.1]pentan-1-yl (S)-1-(4-fluorophenyl)-3,4-dihydroisoquinoline-2(1H)-carboxylate] had a pEC50 of less than 5.00.

Regarding `CNC12CC(OC(=O)N3CCc4ccccc4[C@@H]3c3ccc(F)cc3)(C1)C2` [Compound 4026, 3-(Methylamino)bicyclo[1.1.1]pentan-1-yl (S)-1-(4-fluorophenyl)-3,4-dihydroisoquinoline-2(1H)-carboxylate hydrochloride], the pEC50 was 6.07.

Turning to `CS(=O)(=O)CCNC12CC(OC(=O)N3CCc4ccccc4[C@@H]3c3ccc(F)cc3)(C1)C2` [Compound 4027, 3-((2-(Methylsulfonyl)ethyl)amino)bicyclo[1.1.1]pentan-1-yl (S)-1-(4-fluorophenyl)-3,4-dihydroisoquinoline-2(1H)-carboxylate hydrochloride], the pEC50 is 5.97. This pEC50 and that of the compound before are within 0.2 log units of each other.

`N[C@H]1C[C@@H](CNC(=O)N2CCc3ccccc3[C@@H]2c2ccc(F)cc2)C1` [Compound 4028, Cis-(S)—N-((3-aminocyclobutyl)methyl)-1-(4-fluorophenyl)-3,4-dihydroisoquinoline-2(1H)-carboxamide] gave a pEC50 of 5.63.

In turn, `N[C@H]1C[C@H](CNC(=O)N2CCc3ccccc3[C@@H]2c2ccc(F)cc2)C1` [Compound 4029, Trans-(S)—N-((3-aminocyclobutyl)methyl)-1-(4-fluorophenyl)-3,4-dihydroisoquinoline-2(1H)-carboxamide] gave a pEC50 of 5.47.

For the compound `NC[C@H]1C[C@@H](OC(=O)N2CCc3ccccc3[C@@H]2c2ccc(F)cc2)C1` [Compound 4030, Cis-3-(aminomethyl)cyclobutyl (S)-1-(4-fluorophenyl)-3,4-dihydroisoquinoline-2(1H)-carboxylate], the pEC50 was 5.02.

For the compound `NC[C@H]1C[C@H](OC(=O)N2CCc3ccccc3[C@@H]2c2ccc(F)cc2)C1` [Compound 4031, Trans-3-(aminomethyl)cyclobutyl (S)-1-(4-fluorophenyl)-3,4-dihydroisoquinoline-2(1H)-carboxylate], the pEC50 is less than 5.00.

`NC[C@H]1C[C@@H](NC(=O)N2CCc3ccccc3[C@@H]2c2ccc(F)cc2)C1` [Compound 4032, (S)—N-(cis-3-(aminomethyl)cyclobutyl)-1-(4-fluorophenyl)-3,4-dihydroisoquinoline-2(1H)-carboxamide] gave a pEC50 of less than 5.00.

As to `NC1(COC(=O)N2CCc3ccccc3[C@@H]2c2ccc(F)cc2)CC1` [Compound 4033, (1-Aminocyclopropyl)methyl (S)-1-(4-fluorophenyl)-3,4-dihydroisoquinoline-2(1H)-carboxylate hydrochloride], the pEC50 is 6.49.

Compound `N[C@H]1C[C@@H](NC(=O)N2CCc3ccccc3[C@@H]2c2ccc(F)cc2)C1` [Compound 4034, (S)—N-(cis-3-aminocyclobutyl)-1-(4-fluorophenyl)-3,4-dihydroisoquinoline-2(1H)-carboxamide] showed a pEC50 of 6.43.

The compound `N[C@H]1C[C@H](NC(=O)N2CCc3ccccc3[C@@H]2c2ccc(F)cc2)C1` [Compound 4035, (S)—N-(trans-3-aminocyclobutyl)-1-(4-fluorophenyl)-3,4-dihydroisoquinoline-2(1H)-carboxamide hydrochloride] had a pEC50 of 6.31.

For `N[C@H]1C[C@H](OC(=O)N2CCc3ccccc3[C@@H]2c2ccc(F)cc2)C1` [Compound 4036, Trans-3-aminocyclobutyl (S)-1-(4-fluorophenyl)-3,4-dihydroisoquinoline-2(1H)-carboxylate hydrochloride], the pEC50 is 5.95.

Compound `C[C@]1(N)C[C@@H](NC(=O)N2CCc3ccccc3[C@@H]2c2ccc(F)cc2)C1` [Compound 4041, (S)—N-(cis-3-amino-3-methylcyclobutyl)-1-(4-fluorophenyl)-3,4-dihydroisoquinoline-2(1H)-carboxamide hydrochloride] gave a pEC50 of 6.51.

As for `C[C@]1(N)C[C@H](NC(=O)N2CCc3ccccc3[C@@H]2c2ccc(F)cc2)C1` [Compound 4042, (S)—N-(trans-3-amino-3-methylcyclobutyl)-1-(4-fluorophenyl)-3,4-dihydroisoquinoline-2(1H)-carboxamide hydrochloride], the pEC50 is 7.23.

A word on the pEC50: it is the negative decadic logarithm of the EC50, by convention in mol/L. High values mean a low EC50, low ones a high EC50.

(Values after patent US20230115534A1 (ARKUDA THERAPEUTICS, priority 2019, published 2023).)
